Where “and” joins values, the source holds several entries; their conditions need not be identical. Identical values can stand only once.
Test: Adverse events during switch from oral to i.v. selexipag and back in subjects with stable PAH (Phase 3 study)
Type: in vivo, human
Description: This was a prospective, multicenter, open-label, single-sequence, cross-over, Phase 3 study. Based on the dose of selexipag received at study entry, subjects were allocated to one of the following groups, selexipag 200-1000 μg b.i.d. or selexipag 1200-1600 μg b.i.d. See, FIG. 1. The study comprised the following periods:
(ii) Treatment and observation period: The treatment and observation period included the following consecutive periods: • Period 1 included oral selexipag pre-treatment period for 1 day, in-hospital. This period started with intake of the morning dose of oral selexipag on Day 1 at Visit 2 and ended the following day, before initiation of the first infusion of i.v. selexipag. • Period 2 included i.v. selexipag treatment period for 36 hours [3 infusions], in-hospital. This period started in the morning of Day 2 at Visit 2 with the start of the first infusion of i.v. selexipag and ended in the evening of Day 3 at Visit 2 before the evening administration of oral selexipag. Administration of oral selexipag was interrupted during the i.v. selexipag treatment period. • Period 3 included oral selexipag post-treatment period for 7 to 11 day. This period started in the evening of Day 3 at Visit 2 with the administration of oral selexipag and ended 7-11 days later, at Visit 3.
The endpoints analyzed for Period 1, Period 2, and Period 3 and follow-up period combined included discontinuations due to prostacyclin-associated AEs, adverse events (AEs) and serious adverse events (SAEs), prostacyclin-associated AEs, AEs related to injection site reactions, and PAH-related AEs.
The endpoints analyzed for (i) Period 1, Period 2, and Period 3 and follow-up period combined (ii) Period 1 and Period 2 combined, and (iii) Period 2 and Period 3 combined included discontinuations due to prostacyclin-associated AEs, discontinuations due to any AEs, AEs and SAEs, prostacyclin-associated AEs, PAH-related AEs, change from baseline in vital signs (systolic blood pressure [SBP], diastolic blood pressure [DBP], and pulse rate) and body weight, ECG abnormalities, marked laboratory abnormalities, and change from baseline in WHO FC.
The statistical analysis was mainly descriptive, without formal hypothesis testing. Exact Pearson-Clopper CIs for the incidence of AEs were computed.

[1] = Overall (Periods 1, 2, and 3, and safety-follow-up combined), 20 subjects
[2] = Overall (Periods 1, 2, and 3 with safety-follow-up combined)
[3] = Period 1 (oral selexipag), total, N = 20
[4] = Period 1 (oral selexipag, 24 h), high dose cohort (1200-1600 μg), N = 12
[5] = Period 1 (oral selexipag, 24 h), high dose cohort (1200-1600 μg), N = 12, listed as Uptravi
[6] = Period 1 (oral selexipag, 24 h), low dose cohort (200-1000 μg), N = 8
[7] = Period 1 (oral selexipag, 24 h), total, N = 20
[8] = Period 2 (i.v. selexipag, 36 h), high dose cohort (1200-1600 μg), N = 12
[9] = Period 2 (i.v. selexipag, 36 h), low dose cohort (200-1000 μg), N = 8
[10] = Period 2 (i.v. selexipag, 36 h), total, N = 20
[11] = Period 2 (intravenous selexipag treatment), high dose cohort (1200-1600 μg), N = 12

In the case of `CC(C)N(CCCCOCC(=O)NS(C)(=O)=O)c1cnc(-c2ccccc2)c(-c2ccccc2)n1` [selexipag, 2-{4-[(5,6-diphenylpyrazin-2-yl)(propan-2-yl)amino]butoxy}-N-(methanesulfonyl)acetamide], the “most frequently reported AE preferred term: headache” value [1] is reported as 4 subjects, the “subjects with at least 1 AE during the study” value [1] is reported as 15 subjects and the “subjects with mild intensity AEs” value [2] is reported as 8 subjects. The “subjects with moderate intensity AEs” value [2] was 5 subjects, the “subjects with severe intensity AEs” value [2] was 1 subject and the “Subjects with at least one prostacyclin-associated AE” value (Period 1 (oral selexipag), high dose cohort (1200-1600 μg), N = 12) was 0 n (%). For the same compound, the “Subjects with at least one prostacyclin-associated AE” value (Period 1 (oral selexipag), low dose cohort (200-1000 μg), N = 8) was 0 n (%), the Deaths [3] was 0 n (%) and the “Discontinuations due to prostacyclin-associated AEs” value [3] was 0 n (%). The “Number of subjects with at least one Prostacyclin-associated AEs” value [3] was 0 n (%), the “Number of subjects with at least one Serious adverse events (SAEs)” value [3] was 0 n (%) and the “SAE incidence: Blindness unilateral” value [3] was 0 n (%). The “SAE incidence: Rhegmatogenous retinal detachment” value [3] was 0 n (%), the “SAE incidence: Right ventricular failure” value [3] was 0 n (%) and the “AE incidence: Sleep disorder” value [4] was 1 n (%). For the same compound, the “AE incidence: Swelling face” value [4] was 0 n (%), the “Subjects with at least one AE” value [4] was 1 n (%) and the “AE incidence: Sleep disorder” value [5] was 1 (8.3) n (%). The “Subjects with at least one AE” value [5] was 1 (8.3) n (%), the “AE incidence: Sleep disorder” value [6] was 0 n (%) and the “AE incidence: Swelling face” value [6] was 1 (12.5) n (%). The “Subjects with at least one AE” value [6] was 1 (12.5) n (%), the “AE incidence: Sleep disorder” value [7] was 1 n (%) and the “AE incidence: Swelling face” value [7] was 1 n (%). The “Subjects with at least one AE” value [7] was 2 n (%) and 2 (10.0) n (%), the “Subjects with at least one AE” value (Period 1 (oral selexipag, 24 h), total, N = 20, listed as Uptravi) was 2 n (%) and the “prematurely discontinued study treatment” value (Period 2 (3 i.v. infusions of selexipag)) was “No subject”. For the same compound, the “subjects with clinically significant injection site reactions as determined by the investigator” value (Period 2 (i.v. selexipag)) was “two”, the “AE incidence: Diarrhoea” value [8] was 1 n (%) and the “AE incidence: Dysgeusia” value [8] was 0 n (%). The “AE incidence: Epistaxis” value [8] was 0 n (%), the “AE incidence: Flatulence” value [8] was 1 n (%) and the “AE incidence: Flushing” value [8] was 1 n (%). For the same compound, the “AE incidence: Headache” value [8] was 3 n (%), the “AE incidence: Incorrect drug administration rate” value [8] was 0 n (%) and the “AE incidence: Infusion site erythema” value [8] was 2 n (%). For the same compound, the “AE incidence: Infusion site swelling” value [8] was 1 n (%), the “AE incidence: Lymphadenopathy” value [8] was 0 n (%) and the “AE incidence: Myalgia” value [8] was 1 n (%). For the same compound, the “AE incidence: Nasal congestion” value [8] was 1 n (%), the “AE incidence: Nausea” value [8] was 1 n (%) and the “AE incidence: Pain in jaw” value [8] was 1 n (%). For the same compound, the “AE incidence: Tachycardia” value [8] was 0 n (%), the “AE incidence: Tension headache” value [8] was 1 n (%) and the “AE incidence: Vascular access complication” value [8] was 1 n (%). The “AE incidence: Vomiting” value [8] was 1 n (%), the “Subjects with at least one AE” value [8] was 6 n (%) and the “AE incidence: Diarrhoea” value [9] was 0 n (%). For the same compound, the “AE incidence: Dysgeusia” value [9] was 1 (12.5) n (%), the “AE incidence: Epistaxis” value [9] was 1 (12.5) n (%) and the “AE incidence: Flatulence” value [9] was 0 n (%). For the same compound, the “AE incidence: Flushing” value [9] was 0 n (%), the “AE incidence: Headache” value [9] was 1 (12.5) n (%) and the “AE incidence: Incorrect drug administration rate” value [9] was 1 (12.5) n (%). For the same compound, the “AE incidence: Infusion site erythema” value [9] was 0 n (%), the “AE incidence: Infusion site swelling” value [9] was 0 n (%) and the “AE incidence: Lymphadenopathy” value [9] was 1 (12.5) n (%). For the same compound, the “AE incidence: Myalgia” value [9] was 0 n (%), the “AE incidence: Nasal congestion” value [9] was 0 n (%) and the “AE incidence: Nausea” value [9] was 0 n (%). For the same compound, the “AE incidence: Pain in jaw” value [9] was 0 n (%), the “AE incidence: Tachycardia” value [9] was 1 (12.5) n (%) and the “AE incidence: Tension headache” value [9] was 0 n (%). The “AE incidence: Vascular access complication” value [9] was 0 n (%), the “AE incidence: Vomiting” value [9] was 0 n (%) and the “Subjects with at least one AE” value [9] was 4 (50.0) n (%). The “AE incidence: Diarrhoea” value [10] was 1 n (%), the “AE incidence: Dysgeusia” value [10] was 1 n (%) and the “AE incidence: Epistaxis” value [10] was 1 n (%). The “AE incidence: Flatulence” value [10] was 1 n (%), the “AE incidence: Flushing” value [10] was 1 n (%) and the “AE incidence: Headache” value [10] was 4 n (%). The “AE incidence: Incorrect drug administration rate” value [10] was 1 n (%), the “AE incidence: Infusion site erythema” value [10] was 2 n (%) and the “AE incidence: Infusion site swelling” value [10] was 1 n (%). The “AE incidence: Lymphadenopathy” value [10] was 1 n (%), the “AE incidence: Myalgia” value [10] was 1 n (%) and the “AE incidence: Nasal congestion” value [10] was 1 n (%). The “AE incidence: Nausea” value [10] was 1 n (%), the “AE incidence: Pain in jaw” value [10] was 1 n (%) and the “AE incidence: Tachycardia” value [10] was 1 n (%). For the same compound, the “AE incidence: Tension headache” value [10] was 1 n (%), the “AE incidence: Vascular access complication” value [10] was 1 n (%) and the “AE incidence: Vomiting” value [10] was 1 n (%). For the same compound, the “Subjects with at least one AE” value [10] was 10 n (%), the “Prostacyclin-associated AE incidence: Diarrhoea” value [11] was 1 n (%) and the “Prostacyclin-associated AE incidence: Flushing” value [11] was 1 n (%). The “Prostacyclin-associated AE incidence: Headache” value [11] was 3 n (%), the “Prostacyclin-associated AE incidence: Myalgia” value [11] was 1 n (%) and the “Prostacyclin-associated AE incidence: Nausea” value [11] was 1 n (%). For the same compound, the “Prostacyclin-associated AE incidence: Pain in jaw” value [11] was 1 n (%) and the “Prostacyclin-associated AE incidence: Tension headache” value [11] was 1 n (%).

Source: patent US20220323437A1, “METHODS FOR TREATING PULMONARY ARTERIAL HYPERTENSION” (ACTELION PHARMACEUTICALS LTD, priority 2019, published 2022)
